Test results reported in the NIST ThermoML archive (doi:10.1021/je034265f).
± gives the expanded uncertainty stated by the source.

Test: activity coefficient (dimensionless); of the first substance listed, at infinite dilution; xn = mol fraction of the nth substance listed
Conditions: Liquid, x1 = 0

| SMILES | activity coefficient (249.99 K) | activity coefficient (270 K) | activity coefficient (290 K) | activity coefficient (310 K) | activity coefficient (330 K) | activity coefficient (249.97 K) | activity coefficient (250.01 K) | activity coefficient (290.01 K) | activity coefficient (269.99 K) | activity coefficient (270.04 K) | activity coefficient (310.01 K) | activity coefficient (249.96 K) |
| --- | --- | --- | --- | --- | --- | --- | --- | --- | --- | --- | --- | --- |
| C=C(C)C [2-methylpropene] + CCC(C)O | 3.7 ± 0.1 | 3.5 ± 0.1 | 3.4 ± 0.1 | 3.2 ± 0.1 | 3 ± 0.1 | – | – | – | – | – | – | – |
| CC(C)C [2-methylpropane] + CCC(C)O | – | 4.3 ± 0.1 | 4.2 ± 0.1 | 4.1 ± 0.1 | 3.8 ± 0.1 | 4.4 ± 0.1 | – | – | – | – | – | – |
| C/C=C/C [(E)-2-butene] + CCCCO | – | 3.4 ± 0.1 | – | 3.3 ± 0.1 | 3.3 ± 0.1 | – | 3.4 ± 0.1 | 3.4 ± 0.1 | – | – | – | – |
| C=CC [propene] + CCCCO | 3 ± 0.1 | 3 ± 0.1 | – | 3 ± 0.1 | 3 ± 0.1 | – | – | 3 ± 0.1 | – | – | – | – |
| C=CCC [1-butene] + CCC(C)O | – | – | 3.5 ± 0.1 | 3.3 ± 0.1 | 3.1 ± 0.1 | 3.7 ± 0.1 | – | – | 3.6 ± 0.1 | – | – | – |
| C=CC=C [1,3-butadiene] + CCC(C)O | 3.5 ± 0.1 | 3.4 ± 0.1 | 3.2 ± 0.1 | 3 ± 0.1 | 2.8 ± 0.1 | – | – | – | – | – | – | – |
| C=C(C)C [2-methylpropene] + CCCCO | – | – | – | – | 3.2 ± 0.1 | – | 3.4 ± 0.1 | 3.4 ± 0.1 | – | 3.4 ± 0.1 | 3.3 ± 0.1 | – |
| CC(C)C [2-methylpropane] + CCCCO | – | – | – | – | 4.1 ± 0.1 | – | 4.4 ± 0.1 | 4.3 ± 0.1 | – | 4.4 ± 0.1 | 4.3 ± 0.1 | – |
| C=CCC [1-butene] + CCCCO | – | 3.4 ± 0.1 | – | 3.3 ± 0.1 | 3.2 ± 0.1 | – | 3.5 ± 0.1 | 3.4 ± 0.1 | – | – | – | – |
| C/C=C/C [(E)-2-butene] + CCC(C)O | – | – | 3.5 ± 0.1 | 3.3 ± 0.1 | 3.1 ± 0.1 | 3.7 ± 0.1 | – | – | 3.6 ± 0.1 | – | – | – |
| CCCC [butane] + CCC(C)O | – | 4.1 ± 0.1 | 4 ± 0.1 | 3.9 ± 0.1 | 3.6 ± 0.1 | – | – | – | – | – | – | 4.2 ± 0.1 |
| CCCC [butane] + CCCCO | – | – | – | – | 3.9 ± 0.1 | – | 4.1 ± 0.1 | 4.1 ± 0.1 | – | 4.1 ± 0.1 | 4 ± 0.1 | – |
| C=CC=C [1,3-butadiene] + CCCCO | – | – | – | – | 2.8 ± 0.1 | – | 3 ± 0.1 | 2.9 ± 0.1 | – | 2.9 ± 0.1 | 2.9 ± 0.1 | – |
| CCC [propane] + CCCCO | – | 3.6 ± 0.1 | – | 3.6 ± 0.1 | 3.6 ± 0.1 | – | 3.6 ± 0.1 | 3.6 ± 0.1 | – | – | – | – |
| CCC [propane] + CCC(C)O | – | – | 3.5 ± 0.1 | 3.5 ± 0.1 | 3.3 ± 0.1 | 3.6 ± 0.1 | – | – | 3.5 ± 0.1 | – | – | – |
| C=CC [propene] + CCC(C)O | – | – | 3.1 ± 0.1 | 3 ± 0.1 | 2.8 ± 0.1 | 3.1 ± 0.1 | – | – | 3.1 ± 0.1 | – | – | – |
